{"source": "paper PMC11758220", "about": "“Identification of a Privileged Scaffold for Inhibition of Sterol Transport Proteins through the Synthesis and Ring Distortion of Diverse, Pseudo-Natural Products” (ACS Central Science, 2025)", "assay_type_in_all_cases": "binding", "conditions_in_all_cases": "single dose, Dose = 10 µM", "key": {"STARD4": {"target": "T1, STARD4 (Homo sapiens, UniProt Q96DR4, C75S)", "T1 construct": "STARD4(2-205; C75S); made in house; host or cells: E. coli BL21(DE3)", "T1 sequence (Q96DR4 2-205 C75S)": "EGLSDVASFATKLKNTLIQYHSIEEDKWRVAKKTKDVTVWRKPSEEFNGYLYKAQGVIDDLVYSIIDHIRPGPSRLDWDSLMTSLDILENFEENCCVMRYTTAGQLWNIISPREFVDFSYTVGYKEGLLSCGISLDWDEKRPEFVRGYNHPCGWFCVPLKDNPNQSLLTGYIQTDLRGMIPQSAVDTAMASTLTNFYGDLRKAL", "assay": "Differential scanning fluorimetry (DSF), STARD4", "source_text": "(§1) Protein expression constructs\n(§2) Human ASTER domains of Aster-A(359-547), -B(364-552) and -C(318-504) were subcloned into a pGEX-6p-2rbs vector, thus introducing the cloning artifact ‘GPLGS’.3 The pGEX-6P-1-GST-OSBP(377- […]\n(§3) a gift from James H. Hurley (University of California).4 The pHIS_2His6_Thrombin_STARD4(2-205;C75S) plasmid was a gift from Young Jun Im (Chonnam National University).5 STARD5A was a gift from Nicola Burgess-Brown (Addgene plasmid #42392; http://n2t.net/addgene:42392; […]\n(§4) Protein expression and purification […]\n(§5) vectors including an N-terminal PreScission-cleavable glutathione S-transferase (GST)-tag were expressed in Escherichia coli (E. coli) OverExpress C41 in Terrific Broth (TB) medium for 16 h at 18 °C after the induction with 0.1 mM isopropyl β-D-1-thiogalactopyranoside (IPTG). Cells were harvested at 3500 × g for 15 minutes and lysed by sonication in buffer containing 50 mM HEPES pH 7.5, 300 mM NaCl, 10 %v/v glycerol, 5 mM dithiothreitol (DTT), 0.1 %v/v Triton X-100 and protease inhibitor mix HP plus (Serva). The lysate was purified by affinity chromatography on a GSTrap FF column (Cytiva) using an ÄKTA Start (Cytiva) in buffer containing 50 mM HEPES pH 7.5, 300 mM NaCl, 10 %v/v glycerol, 5 mM DTT and 0.01 %v/v Triton X-100. The GST-tag was cleaved overnight on the column at 4 °C. The Aster sterol binding domains were further purified by size-exclusion chromatography (SEC) on a HiLoad 16/600 Superdex 75 pg (Cytiva) in buffer containing 20 mM HEPES pH 7.5, 300 mM NaCl, 10 %v/v […]\n(§6) STARD5(6-213) harboring an N-terminal His6-Tag were expressed in E. coli BL21(DE3) in Luria-Bertani Broth (LB) medium for approximately 16 h at 18 °C after induction with 0.15 mM IPTG. Cells were harvested at 3500 × g for 15 minutes and lysed by sonication in buffer containing 50 mM HEPES pH 7.5, 150 mM NaCl, 5 %v/v glycerol, 5 mM DTT, 0.1 %v/v Triton X -100 and ethylenediaminetetraacetic acid (EDTA)-free protease inhibitor cocktail (Sigma-Aldrich). The cleared lysate was purified by affinity chromatography on a Ni-NTA Superflow Cartridge (Qiagen) using an ÄKTA Start (Cytiva) in buffer containing 50 mM HEPES pH 7.5, 150 mM NaCl, 5 %v/v glycerol, 5 mM DTT. START domains were eluted by using elution buffer containing 50 mM HEPES pH 7.5, 150 mM NaCl, 5 %v/v glycerol, 5 mM DTT and 500 mM imidazole. Proteins were further purified by SEC on a HiLoad 16/600 Superdex 75 pg (Cytiva) in buffer containing 20 mM HEPES pH 7.5, 150 mM NaCl, 5 %v/v glycerol and 2 mM DTT.\n(§7) The ORP domain of human OSBP(377-807) in the pGEX-6p-1 vector with an N-terminal PreScission-cleavable GST-tag was expressed in E. coli OverExpress C41 in LB medium for 16 h at 18 °C after induction with 0.1 mM IPTG. Cells were harvested at 3500 × g for 15 minutes and lysed by sonication in buffer containing 20 mM HEPES pH 7.5, 300 mM NaCl, 10 %v/v glycerol, 5 mM DTT, 0.1 %v/v Triton X-100 and EDTA-free protease inhibitor cocktail (Sigma-Aldrich). The cleared lysate was purified by affinity chromatography on a GSTrap HF column (Cytiva) using an ÄKTA Start (Cytiva) in buffer containing 20 mM HEPES pH 7.5, 300 mM NaCl, 10 %v/v glycerol, 5 mM DTT. OSBP(377 -807) was eluted by using elution buffer containing 20 mM HEPES pH 7.5, 300 mM NaCl, 10 %v/v glycerol, 5 mM DTT and 10 mM reduced glutathione. Proteins were further purified by SEC on a HiLoad 16/600 Superdex 75 pg (Cytiva) using an ÄKTA Explorer (Cytiva) in buffer containing 20 mM HEPES pH 7.5, 150 mM NaCl, 10 %v/v glycerol and 2 mM DTT.\n(§8) The ORP domains of human ORP1(534-950) in pET24b(+) and ORP2(49-480) in the pET24b(+) vector including an N-terminal His6-Tag were expressed in E. coli BL21(DE3) in TB medium for approximately 16 h at 18 °C after induction with 0.1 mM IPTG. Cells were collected at 3500 × g for 15 minutes and lysed by sonification in buffer containing 10 mM Tris-HCl pH 8, 300 mM NaCl, 5 % glycerol, 2 mM DTT, 0.1 % Triton X-100 and EDTA-free protease inhibitor cocktail (Sigma-Aldrich). The cleared […]"}, "STARD5": {"target": "T2, STARD5 (Homo sapiens, UniProt Q9NSY2)", "T2 construct": "STARD5(6-213); host or cells: E. coli BL21(DE3)", "T2 sequence (Q9NSY2 6-213)": "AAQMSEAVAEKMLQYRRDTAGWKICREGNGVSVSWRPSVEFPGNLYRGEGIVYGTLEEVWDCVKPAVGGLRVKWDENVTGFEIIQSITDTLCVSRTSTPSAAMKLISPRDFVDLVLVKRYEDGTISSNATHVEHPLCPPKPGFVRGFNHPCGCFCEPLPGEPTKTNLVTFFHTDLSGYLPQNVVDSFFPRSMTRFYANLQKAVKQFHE", "assay": "Differential scanning fluorimetry (DSF), STARD5", "source_text": "as §1, §2, §3, §4, §5, §6, §7, §8"}, "STARD3": {"target": "T3, STARD3 (Homo sapiens, UniProt Q14849)", "T3 construct": "STARD3(216-444); made in house; host or cells: E. coli BL21(DE3)", "T3 sequence (Q14849 216-444)": "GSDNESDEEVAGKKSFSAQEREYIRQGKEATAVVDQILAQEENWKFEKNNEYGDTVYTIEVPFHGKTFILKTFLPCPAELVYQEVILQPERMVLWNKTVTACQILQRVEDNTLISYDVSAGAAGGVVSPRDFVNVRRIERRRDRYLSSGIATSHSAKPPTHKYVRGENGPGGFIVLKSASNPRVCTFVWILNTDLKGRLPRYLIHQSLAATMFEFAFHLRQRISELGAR", "assay": "Differential scanning fluorimetry (DSF), STARD3", "source_text": "as §1, §2, §3, §4, §5, §6, §7, §8"}}}
{"smiles": "Cc1ccc2c(c1)C(=O)[C@]1(CC[C@@H]3C[C@H](O)CC[C@@]31C)N2", "note": "[Compound 13]", "values": [{"measurement": "ΔTm at 10 µM", "setting": "STARD4", "result": 1.1, "unit": "°C"}, {"measurement": "ΔTm at 10 µM", "setting": "STARD5", "result": 0.143, "unit": "°C"}, {"measurement": "ΔTm at 10 µM", "setting": "STARD3", "result": -0.0638, "unit": "°C"}]}
